Counter-ions that a name gives are not always drawn.
tested on: not given; experiment: not given; settings: not given

With `Cc1ccc(C(NC(=O)Cc2ccc(N3CCOCC3)nc2)c2ccc(C)o2)c(N2CCCCC2)c1` (stereo not shown) (as salt: HCl) [Cpd. 25, N-{[4-methyl-2-(piperidin-1-yl)phenyl](5-methylfuran-2-yl)methyl}-2-[6-(morpholin-4-yl)pyridin-3-yl]acetamide] as the compound, how does the melting point read?
Its melting point is 61 °C.

Which melting point does the source give for `Cc1ccc(C(NC(=O)C2(c3ccc(N4CCS(=O)(=O)CC4)c(C)n3)CC2)c2ccc(C)o2)c(C)c1` (stereo not shown) (as salt: HCl) [Cpd. 71, N-[(2,4-dimethylphenyl)(5-methylfuran-2-yl)methyl]-1-[5-(1,1-dioxo-1-thiomorpholin-4-yl)-6-methylpyridin-2-yl]cyclopropane-1-carboxamide] here?
Its melting point is 74 °C.

With `Cc1ccc(C(NC(=O)Cc2ccc(N3CCS(=O)(=O)CC3)c(C)c2)c2ccc(C)o2)c(C(F)(F)F)c1` (stereo not shown) (as salt: HCl) [Cpd. 10, 2-[4-(1,1-dioxo-1-thiomorpholin-4-yl)-3-methylphenyl]-N-{[4-methyl-2-(trifluoromethyl)phenyl](5-methylfuran-2-yl)methyl}acetamide] as the compound, how does the melting point read?
The melting point was 99 °C.

Which melting point does the source give for `Cc1ccc(N2CCCCC2)c(C(NC(=O)Cc2cnc(N3CCS(=O)(=O)CC3)nc2)c2ccc(C)o2)c1` (stereo not shown) (as salt: HCl) [Cpd. 17, 2-[2-(1,1-dioxo-1-thiomorpholin-4-yl)pyrimidin-5-yl]-N-{[5-methyl-2-(piperidin-1-yl)phenyl](5-methylfuran-2-yl)methyl}acetamide] here?
The melting point was 159 °C.

For `Cc1ccc(C(NC(=O)C2(c3ccc(N4CCS(=O)(=O)CC4)cc3)CCC2)c2ccc(C)o2)c(N2CCCCC2)c1` (stereo not shown) (as salt: HCl) [Cpd. 55, 1-[4-(1,1-dioxo-1-thiomorpholin-4-yl)phenyl]-N-{[4-methyl-2-(piperidin-1-yl)phenyl](5-methylfuran-2-yl)methyl}cyclobutane-1-carboxamide], which melting point is on record?
Its melting point is 87 °C.

Which melting point does the source give for `COc1ccc(C(NC(=O)Cc2ccc(N3CCS(=O)(=O)CC3)c(C)c2)c2ccc(C)o2)c(N2CCC(C)CC2)c1` (stereo not shown) (as salt: HCl) [Cpd. 13, 2-[4-(1,1-dioxo-1-thiomorpholin-4-yl)-3-methylphenyl]-N-{[4-methoxy-2-(4-methylpiperidin-1-yl)phenyl](5-methylfuran-2-yl)methyl}acetamide] here?
Its melting point is 101 °C.

With `COc1ccc(C(NC(=O)Cc2ccc(N3CCS(=O)(=O)CC3)c(C)c2)c2ccc(C)o2)c(N2CCC(C(F)(F)F)CC2)c1` (stereo not shown) (as salt: HCl) [Cpd. 14, 2-[4-(1,1-dioxo-1-thiomorpholin-4-yl)-3-methylphenyl]-N-({4-methoxy-2-[4-(trifluoromethyl)piperidin-1-yl]phenyl}(5-methylfuran-2-yl)methyl)acetamide] as the compound, how does the melting point read?
Its melting point is 106 °C.

With `Cc1ccc(C(NC(=O)Cc2ncc(N3CCS(=O)(=O)CC3)cn2)c2ccc(C)o2)c(N2CCCCC2)c1` (stereo not shown) (as salt: HCl) [Cpd. 65, 2-[5-(1,1-dioxo-1-thiomorpholin-4-yl)pyrimidin-2-yl]-N-{[4-methyl-2-(piperidin-1-yl)phenyl](5-methylfuran-2-yl)methyl}acetamide] as the compound, how does the melting point read?
Its melting point is 99 °C.

Which melting point does the source give for `COc1ccc(CC(=O)NC(c2ccc(C)o2)c2ccc(C)cc2N2CCCCC2)cc1N1CCS(=O)(=O)CC1` (stereo not shown) (as salt: HCl) [Cpd. 30, 2-[3-(1,1-dioxo-1-thiomorpholin-4-yl)-4-methoxyphenyl]-N-{[4-methyl-2-(piperidin-1-yl)phenyl](5-methylfuran-2-yl)methyl}acetamide] here?
The melting point was 88 °C.

Which melting point does the source give for `Cc1ccc(C(NC(=O)C2(c3ccc(N4CCS(=O)(=O)CC4)cc3)CC2)c2ccc(C)o2)c(N2CCCCC2)c1` (stereo not shown) (as salt: HCl) [Cpd. 32, 1-[4-(1,1-dioxo-1-thiomorpholin-4-yl)phenyl]-N-{[4-methyl-2-(piperidin-1-yl)phenyl](5-methylfuran-2-yl)methyl}cyclopropane-1-carboxamide] here?
The melting point was 98 °C.

For `Cc1ccc(C(NC(=O)C2(c3ccc(N4CCS(=O)(=O)CC4)cc3)CCC2)c2ccc(C)o2)c(C)c1` (stereo not shown) (as salt: HCl) [Cpd. 41, N-[(2,4-dimethylphenyl)(5-methylfuran-2-yl)methyl]-1-[4-(1,1-dioxo-1-thiomorpholin-4-yl)phenyl]cyclobutane-1-carboxamide], which melting point is on record?
The melting point was 79 °C.

With `O=C(Cc1cc(N2CCS(=O)(=O)CC2)ccc1F)NC(c1ccccc1)c1ccccc1N1CCCCC1` (stereo not shown) (as salt: HCl) [Cpd. 3, 2-[5-(1,1-dioxo-1-thiomorpholin-4-yl)-2-fluorophenyl]-N-{phenyl[2-(piperidin-1-yl)phenyl]methyl}acetamide] as the compound, how does the melting point read?
Its melting point is 184 °C.

With `Cc1ccc(C(NC(=O)Cc2ccc(O)c(N3CCS(=O)(=O)CC3)c2)c2ccc(C)o2)c(C)c1` (stereo not shown) (as salt: HCl) [Cpd. 43, N-[(2,4-dimethylphenyl)(5-methylfuran-2-yl)methyl]-2-[3-(1,1-dioxo-1-thiomorpholin-4-yl)-4-hydroxyphenyl]acetamide] as the compound, how does the melting point read?
The melting point was 146 °C.

Which melting point does the source give for `Cc1ccc(C(NC(=O)Cc2ccc(O)c(N3CCS(=O)(=O)CC3)c2)c2ccc(C)o2)c(N2CCCCC2)c1` (stereo not shown) (as salt: HCl) [Cpd. 39, 2-[3-(1,1-dioxo-1-thiomorpholin-4-yl)-4-hydroxyphenyl]-N-{[4-methyl-2-(piperidin-1-yl)phenyl](5-methylfuran-2-yl)methyl}acetamide] here?
Its melting point is 118 °C.

Which melting point does the source give for `Cc1ccc(C(NC(=O)C2(c3cnc(N4CCS(=O)(=O)CC4)nc3)CC2)c2ccc(C)o2)c(C)c1` (stereo not shown) (as salt: HCl) [Cpd. 48, N-[(2,4-dimethylphenyl)(5-methylfuran-2-yl)methyl]-1-[2-(1,1-dioxo-1-thiomorpholin-4-yl)pyrimidin-5-yl]cyclopropane-1-carboxamide] here?
Its melting point is 82 °C.

With `COc1ccc(C(NC(=O)Cc2cnc(N3CCS(=O)(=O)CC3)nc2)c2ccc(C)o2)c(N2CCCCCC2)c1` (stereo not shown) (as salt: HCl) [Cpd. 45, N-{[2-(azepan-1-yl)-4-methoxyphenyl](5-methylfuran-2-yl)methyl}-2-[2-(1,1-dioxo-1-thiomorpholin-4-yl)pyrimidin-5-yl]acetamide] as the compound, how does the melting point read?
The melting point was 106 °C.

target: T1, human RORγt (Homo sapiens, UniProt P51449); experiment: RORE Luciferase/RORγt transactivation assay (IL-17 promoter luciferase reporter in COS-7 cells); type: cell-based; design: V5-His (named only through the vector pcDNA3.1D/V5-His-TOPO); expressed in transfected cells; host or cells: COS-7 (monkey kidney); settings: RORγt activity inhibition, luciferase activity in transfected COS-7 cells, 20 h
T1 sequence (P51449 1-497 isoform P51449-2): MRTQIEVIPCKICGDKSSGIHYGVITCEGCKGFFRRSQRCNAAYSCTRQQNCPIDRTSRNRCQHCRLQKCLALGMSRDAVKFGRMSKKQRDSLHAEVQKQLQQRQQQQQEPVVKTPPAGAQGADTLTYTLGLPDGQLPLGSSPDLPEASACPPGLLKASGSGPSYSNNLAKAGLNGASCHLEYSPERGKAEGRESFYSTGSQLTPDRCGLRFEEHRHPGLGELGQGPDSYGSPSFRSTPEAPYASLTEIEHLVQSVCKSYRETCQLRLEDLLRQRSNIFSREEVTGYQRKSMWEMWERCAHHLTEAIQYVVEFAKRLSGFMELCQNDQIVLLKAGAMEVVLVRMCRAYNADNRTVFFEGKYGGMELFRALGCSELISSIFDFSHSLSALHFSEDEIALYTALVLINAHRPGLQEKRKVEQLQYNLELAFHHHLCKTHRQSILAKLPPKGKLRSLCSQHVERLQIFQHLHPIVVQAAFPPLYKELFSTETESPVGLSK
Method: It is well known that RORγ binds to a conserved non-coding sequence (CNS) enhancer element in the IL-17 promoter.
Culture medium was changed every 2 days.
The 4.3 Kb human IL-17 promoter containing the RORγ-specific CNS enhancer element was PCR amplified from human genomic DNA and cloned into a pGL3-TKLuc2Cp reporter plasmid.
The luciferase reporter plasmid and the RORγt overexpression plasmid were transfected into COS-7 cell line using 4 μL JetPEI™/μg of DNA. Briefly, 150 ng of DNA (ration 1/2 between RORE-Tk Luc2Cp and cDNA RORγt or the empty vector for the negative control) was served to transfect adherent COS-7 cells in a […] culture flask, in complete medium (see cos-7 cell line culture).
Cells were then detached (using trypsin) and washed by centrifugation at 300 g for 10 minutes. Cell pellet was resuspended in serum free/phenol red free DMEM and seeded in 384 well plates at a density of 10000 cells/well and then incubated for 4 h at 37° C.
Compounds were dissolved in 100% DMSO to obtain 10 mM stock solutions. For each compound, test concentrations were diluted in serum free/phenol red free DMEM using the Genesis Freedom 200™ (TECAN) and added to the cells to obtain a 0.3% DMSO final concentration (in a final volume of 40 μL per well).
The luciferase activity was then measured with 40 μL/well steady-Glo Luciferase assay system (Promega, Madison, Wis.) and after incubation at room temperature for 30 minutes. The luminescence was estimated using the Ultra384 reader (TECAN). Data were collected and analyzed using GraphPad Prism software (GraphPad Software V5.02, San Diego Calif. USA). IC50 in μM and E max in % were reported for each compound.

With `Cc1ccc(C(NC(=O)Cc2ccc(N3CCS(=O)(=O)CC3)c(O)c2)c2ccc(C)o2)c(N2CCCCC2)c1` (stereo not shown) [Cpd. 61, 2-[4-(1,1-dioxo-1-thiomorpholin-4-yl)-3-hydroxyphenyl]-N-{[4-methyl-2-(piperidin-1-yl)phenyl](5-methylfuran-2-yl)methyl}acetamide] as the compound, how does the IC50 read?
Its IC50 is under 100 nM.

For `Cc1ccc(C(NC(=O)C2(c3ccc(N4CCS(=O)(=O)CC4)cn3)CC2)c2ccc(C)o2)c(C)c1` (stereo not shown) [Cpd. 73, N-[(2,4-dimethylphenyl)(5-methylfuran-2-yl)methyl]-1-[5-(1,1-dioxo-1-thiomorpholin-4-yl)pyridin-2-yl]cyclopropane-1-carboxamide], which IC50 is on record?
The IC50 was 100 to 1000 nM.

For `Cc1ccc(C(NC(=O)Cc2cnc(N3CCS(=O)(=O)CC3)nc2)c2ccc(C)o2)c(C(F)(F)F)c1` (stereo not shown) [Cpd. 33, 2-[2-(1,1-dioxo-1-thiomorpholin-4-yl)pyrimidin-5-yl]-N-{[4-methyl-2-(trifluoromethyl)phenyl](5-methylfuran-2-yl)methyl}acetamide], which IC50 is on record?
Its IC50 is 1000 to 10000 nM.

For `COCc1ccc(CC(=O)NC(c2ccc(C)o2)c2ccc(C)cc2N2CCCCC2)cc1N1CCS(=O)(=O)CC1` (stereo not shown) [Cpd. 62, 2-[3-(1,1-dioxo-1-thiomorpholin-4-yl)-4-(methoxymethyl)phenyl]-N-{[4-methyl-2-(piperidin-1-yl)phenyl](5-methylfuran-2-yl)methyl}acetamide], which IC50 is on record?
Its IC50 is 100 to 1000 nM.

With `Cc1ccc(C(NC(=O)Cc2ccc(CO)c(N3CCS(=O)(=O)CC3)c2)c2ccc(C)o2)c(N2CCCCC2)c1` (stereo not shown) [Cpd. 63, 2-[3-(1,1-dioxo-1-thiomorpholin-4-yl)-4-(hydroxymethyl)phenyl]-N-{[4-methyl-2-(piperidin-1-yl)phenyl](5-methylfuran-2-yl)methyl}acetamide] as the compound, how does the IC50 read?
Its IC50 is 100 to 1000 nM.

With `Cc1ccc(C(NC(=O)Cc2cnc(N3CCS(=O)(=O)CC3)nc2)c2ccc(Cl)cc2Cl)o1` (stereo not shown) [Cpd. 50, N-[(2,4-dichlorophenyl)(5-methylfuran-2-yl)methyl]-2-[2-(1,1-dioxo-1-thiomorpholin-4-yl)pyrimidin-5-yl]acetamide] as the compound, how does the IC50 read?
The IC50 was 1000 to 10000 nM.
